Results from patent US9579314B2 (priority 2015, dated 2017).

Assays:
Human β2 adrenoceptor = Human β2 adrenoceptor (Homo sapiens, UniProt P07550); conditions: read-out: B2 binding affinity
Human M3 receptor = Human M3 receptor (Homo sapiens, UniProt P20309); conditions: read-out: M3 binding affinity
Sequence of Human M3 receptor (P20309 whole entry): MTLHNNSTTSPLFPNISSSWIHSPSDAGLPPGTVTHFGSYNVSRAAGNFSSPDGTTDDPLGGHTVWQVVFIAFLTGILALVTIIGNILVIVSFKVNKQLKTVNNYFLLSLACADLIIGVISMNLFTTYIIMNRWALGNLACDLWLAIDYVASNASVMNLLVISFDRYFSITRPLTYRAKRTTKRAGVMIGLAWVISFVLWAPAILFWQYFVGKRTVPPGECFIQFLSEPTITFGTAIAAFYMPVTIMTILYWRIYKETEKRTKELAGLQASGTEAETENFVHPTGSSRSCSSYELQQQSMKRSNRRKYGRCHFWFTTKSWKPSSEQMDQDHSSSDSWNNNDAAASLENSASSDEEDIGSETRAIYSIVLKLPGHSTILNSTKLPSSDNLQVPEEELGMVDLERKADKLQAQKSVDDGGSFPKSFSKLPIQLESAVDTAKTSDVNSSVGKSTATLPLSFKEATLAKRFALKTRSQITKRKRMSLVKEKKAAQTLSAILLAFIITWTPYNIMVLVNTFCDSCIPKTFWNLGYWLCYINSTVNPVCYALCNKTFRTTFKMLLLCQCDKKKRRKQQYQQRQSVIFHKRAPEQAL

Sequence of Human β2 adrenoceptor (P07550 whole entry): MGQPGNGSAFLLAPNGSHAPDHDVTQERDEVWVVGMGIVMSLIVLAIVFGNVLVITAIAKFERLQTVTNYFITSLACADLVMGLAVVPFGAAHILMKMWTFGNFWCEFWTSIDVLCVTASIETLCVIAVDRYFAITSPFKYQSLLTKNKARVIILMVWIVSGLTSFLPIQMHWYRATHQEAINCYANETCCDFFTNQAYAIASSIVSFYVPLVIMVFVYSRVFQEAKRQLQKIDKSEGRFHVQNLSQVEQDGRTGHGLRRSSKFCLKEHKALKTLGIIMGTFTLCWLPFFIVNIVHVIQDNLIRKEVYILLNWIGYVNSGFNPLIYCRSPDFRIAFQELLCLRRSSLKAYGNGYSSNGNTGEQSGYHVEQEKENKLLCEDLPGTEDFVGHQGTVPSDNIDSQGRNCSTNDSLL

SMILES	IC50 (Human β2 adrenoceptor) [nM]	IC50 (Human M3 receptor) [nM]
O=C(c1ccc(CNC[C@H](O)c2ccc(O)c3[nH]c(=O)ccc23)cc1)N1C[C@@H]2CCN(C(=O)COc3cccc([C@](O)(C(=O)OCC4CCN(Cc5ccccc5)CC4)c4ccccc4)c3)[C@@H]2C1 [Compound 77, (1-benzylpiperidin-4-yl)methyl (S)-2-hydroxy-2-(3-(2-((3aS,6aS)-5-(4-((((R)-2-hydroxy-2-(8-hydroxy-2-oxo-1,2-dihydroquinolin-5-yl)ethyl)amino)methyl)benzoyl)hexahydropyrrolo[3,4-b]pyrrol-1(2H)-yl)-2-oxoethoxy)phenyl)-2-phenylacetate]	0.3 to 3	0.3 to 3
COc1cc(C(=O)N2CC(NC(=O)COc3cccc([C@](O)(C(=O)OCC4CCN(Cc5ccccc5)CC4)c4ccccc4)c3)C2)ccc1CNC[C@H](O)c1ccc(O)c2[nH]c(=O)ccc12 [Compound 78, (1-benzylpiperidin-4-yl)methyl (S)-2-hydroxy-2-(3-(2-((1-(4-((((R)-2-hydroxy-2-(8-hydroxy-2-oxo-1,2-dihydroquinolin-5-yl)ethyl)amino)methyl)-3-methoxybenzoyl)azetidin-3-yl)amino)-2-oxoethoxy)phenyl)-2-phenylacetate]	< 0.3	< 0.3
COc1cc(C(=O)N2CCC3(CCN(C(=O)COc4cccc([C@](O)(C(=O)OCC5CCN(Cc6ccccc6)CC5)c5ccccc5)c4)CC3)CC2)ccc1CNC[C@H](O)c1ccc(O)c2[nH]c(=O)ccc12 [Compound 79, (1-benzylpiperidin-4-yl)methyl (S)-2-hydroxy-2-(3-(2-(9-(4-((((R)-2-hydroxy-2-(8-hydroxy-2-oxo-1,2-dihydroquinolin-5-yl)ethyl)amino)methyl)-3-methoxybenzoyl)-3,9-diazaspiro[5.5]undecan-3-yl)-2-oxoethoxy)phenyl)-2-phenylacetate]	< 0.3	< 0.3
COc1cc(C(=O)NCC2CCN(C(=O)COc3cccc([C@](O)(C(=O)OCC4CCN(Cc5ccccc5)CC4)c4ccccc4)c3)CC2)ccc1CNC[C@H](O)c1ccc(O)c2[nH]c(=O)ccc12 [Compound 80, (1-benzylpiperidin-4-yl)methyl (S)-2-hydroxy-2-(3-(2-(4-((4-((((R)-2-hydroxy-2-(8-hydroxy-2-oxo-1,2-dihydroquinolin-5-yl)ethyl)amino)methyl)-3-methoxybenzamido)methyl)piperidin-1-yl)-2-oxoethoxy)phenyl)-2-phenylacetate]	< 0.3	0.3 to 3
COc1cc(CNC[C@H](O)c2ccc(O)c3[nH]c(=O)ccc23)ccc1C(=O)N1CCC2(CCN(C(=O)COc3cccc([C@](O)(C(=O)OCC4CCN(Cc5ccccc5)CC4)c4ccccc4)c3)CC2)CC1 [Compound 81, (1-benzylpiperidin-4-yl)methyl (S)-2-hydroxy-2-(3-(2-(9-(4-((((R)-2-hydroxy-2-(8-hydroxy-2-oxo-1,2-dihydroquinolin-5-yl)ethyl)amino)methyl)-2-methoxybenzoyl)-3,9-diazaspiro[5.5]undecan-3-yl)-2-oxoethoxy)phenyl)-2-phenylacetate]	0.3 to 3	0.3 to 3
COc1cc(CNC[C@H](O)c2ccc(O)c3[nH]c(=O)ccc23)ccc1C(=O)N1CC(NC(=O)COc2cccc([C@](O)(C(=O)OCC3CCN(Cc4ccccc4)CC3)c3ccccc3)c2)C1 [Compound 82, (1-benzylpiperidin-4-yl)methyl (S)-2-hydroxy-2-(3-(2-((1-(4-((((R)-2-hydroxy-2-(8-hydroxy-2-oxo-1,2-dihydroquinolin-5-yl)ethyl)amino)methyl)-2-methoxybenzoyl)azetidin-3-yl)amino)-2-oxoethoxy)phenyl)-2-phenylacetate]	0.3 to 3	0.3 to 3
CN(CCNC(=O)c1ccc(CCNC[C@H](O)c2ccc(O)c3[nH]c(=O)ccc23)cc1)C(=O)COc1cccc([C@](O)(C(=O)OCC2CCN(Cc3ccccc3)CC2)c2ccccc2)c1 [Compound 84, (1-benzylpiperidin-4-yl)methyl (S)-2-hydroxy-2-(3-(2-((2-(4-(2-(((R)-2-hydroxy-2-(8-hydroxy-2-oxo-1,2-dihydroquinolin-5-yl)ethyl)amino)ethyl)benzamido)ethyl)(methyl)amino)-2-oxoethoxy)phenyl)-2-phenylacetate]	0.3 to 3	> 3
O=C(COc1cccc([C@](O)(C(=O)OCC2CCN(Cc3ccccc3)CC2)c2ccccc2)c1)NCCCNC(=O)c1ccc(CCNC[C@H](O)c2ccc(O)c3[nH]c(=O)ccc23)cc1 [Compound 85, (1-benzylpiperidin-4-yl)methyl (S)-2-hydroxy-2-(3-(2-((3-(4-(2-(((R)-2-hydroxy-2-(8-hydroxy-2-oxo-1,2-dihydroquinolin-5-yl)ethyl)amino)ethyl)benzamido)propyl)amino)-2-oxoethoxy)phenyl)-2-phenylacetate]	< 0.3	0.3 to 3
O=C(COc1cccc([C@](O)(C(=O)OCC2CCN(Cc3ccccc3)CC2)c2ccccc2)c1)N1CCN(C(=O)c2ccc(CCNC[C@H](O)c3ccc(O)c4[nH]c(=O)ccc34)cc2)CC1 [Compound 86, (1-benzylpiperidin-4-yl)methyl (S)-2-hydroxy-2-(3-(2-(4-(4-(2-(((R)-2-hydroxy-2-(8-hydroxy-2-oxo-1,2-dihydroquinolin-5-yl)ethyl)amino)ethyl)benzoyl)piperazin-1-yl)-2-oxoethoxy)phenyl)-2-phenylacetate]	< 0.3	0.3 to 3
O=C(NCCN(Cc1ccccc1)C(=O)COc1cccc([C@](O)(C(=O)OCC2CCN(Cc3ccccc3)CC2)c2ccccc2)c1)c1ccc(CCNC[C@H](O)c2ccc(O)c3[nH]c(=O)ccc23)cc1 [Compound 87, (1-benzylpiperidin-4-yl)methyl (S)-2-(3-(2-(benzyl(2-(4-(2-(((R)-2-hydroxy-2-(8-hydroxy-2-oxo-1,2-dihydroquinolin-5-yl)ethyl)amino)ethyl)benzamido)ethyl)amino)-2-oxoethoxy)phenyl)-2-hydroxy-2-phenylacetate]	0.3 to 3	0.3 to 3
O=C(COc1cccc([C@](O)(C(=O)OCC2CCN(Cc3ccccc3)CC2)c2ccccc2)c1)N[C@H]1C[C@H](NC(=O)c2ccc(CCNC[C@H](O)c3ccc(O)c4[nH]c(=O)ccc34)cc2)C1 [Compound 88, (1-benzylpiperidin-4-yl)methyl (S)-2-hydroxy-2-(3-(2-(((1R,3S)-3-(4-(2-(((R)-2-hydroxy-2-(8-hydroxy-2-oxo-1,2-dihydroquinolin-5-yl)ethyl)amino)ethyl)benzamido)cyclobutyl)amino)-2-oxoethoxy)phenyl)-2-phenylacetate]	0.3 to 3	< 0.3
O=C(NCC1CCN(C(=O)COc2cccc([C@](O)(C(=O)OCC3CCN(Cc4ccccc4)CC3)c3ccccc3)c2)CC1)c1ccc(CCNC[C@H](O)c2ccc(O)c3[nH]c(=O)ccc23)cc1 [Compound 89, (1-benzylpiperidin-4-yl)methyl (S)-2-hydroxy-2-(3-(2-(4-((4-(2-(((R)-2-hydroxy-2-(8-hydroxy-2-oxo-1,2-dihydroquinolin-5-yl)ethyl)amino)ethyl)benzamido)methyl)piperidin-1-yl)-2-oxoethoxy)phenyl)-2-phenylacetate]	< 0.3	0.3 to 3
O=C(COc1cccc([C@](O)(C(=O)OCC2CCN(Cc3ccccc3)CC2)c2ccccc2)c1)N[C@H]1CC[C@H](NC(=O)c2ccc(CCNC[C@H](O)c3ccc(O)c4[nH]c(=O)ccc34)cc2)CC1 [Compound 90, (1-benzylpiperidin-4-yl)methyl (S)-2-hydroxy-2-(3-(2-(((1R,4S)-4-(4-(2-(((R)-2-hydroxy-2-(8-hydroxy-2-oxo-1,2-dihydroquinolin-5-yl)ethyl)amino)ethyl)benzamido)cyclohexyl)amino)-2-oxoethoxy)phenyl)-2-phenylacetate]	0.3 to 3	0.3 to 3
O=C(COc1cccc([C@](O)(C(=O)OCC2CCN(Cc3ccccc3)CC2)c2ccccc2)c1)NC1CCN(C(=O)c2ccc(CCNC[C@H](O)c3ccc(O)c4[nH]c(=O)ccc34)cc2)CC1 [Compound 91, (1-benzylpiperidin-4-yl)methyl (S)-2-hydroxy-2-(3-(2-((1-(4-(2-(((R)-2-hydroxy-2-(8-hydroxy-2-oxo-1,2-dihydroquinolin-5-yl)ethyl)amino)ethyl)benzoyl)piperidin-4-yl)amino)-2-oxoethoxy)phenyl)-2-phenylacetate]	< 0.3	0.3 to 3
O=C(NC1CCN(C(=O)COc2cccc([C@](O)(C(=O)OCC3CCN(Cc4ccccc4)CC3)c3ccccc3)c2)CC1)c1ccc(CCNC[C@H](O)c2ccc(O)c3[nH]c(=O)ccc23)cc1 [Compound 92, (1-benzylpiperidin-4-yl)methyl (S)-2-hydroxy-2-(3-(2-(4-(4-(2-(((R)-2-hydroxy-2-(8-hydroxy-2-oxo-1,2-dihydroquinolin-5-yl)ethyl)amino)ethyl)benzamido)piperidin-1-yl)-2-oxoethoxy)phenyl)-2-phenylacetate]	< 0.3	< 0.3
O=C(COc1cccc([C@](O)(C(=O)OCC2CCN(Cc3ccccc3)CC2)c2ccccc2)c1)N1CC2(C1)CN(C(=O)c1ccc(CCNC[C@H](O)c3ccc(O)c4[nH]c(=O)ccc34)cc1)C2 [Compound 93, (1-benzylpiperidin-4-yl)methyl (S)-2-hydroxy-2-(3-(2-(6-(4-(2-(((R)-2-hydroxy-2-(8-hydroxy-2-oxo-1,2-dihydroquinolin-5-yl)ethyl)amino)ethyl)benzoyl)-2,6-diazaspiro[3.3]heptan-2-yl)-2-oxoethoxy)phenyl)-2-phenylacetate]	< 0.3	0.3 to 3
O=C(COc1cccc([C@](O)(C(=O)OCC2CCN(Cc3ccccc3)CC2)c2ccccc2)c1)N1CC2(CCN(C(=O)c3ccc(CCNC[C@H](O)c4ccc(O)c5[nH]c(=O)ccc45)cc3)CC2)C1 [Compound 94, (1-benzylpiperidin-4-yl)methyl (S)-2-hydroxy-2-(3-(2-(7-(4-(2-(((R)-2-hydroxy-2-(8-hydroxy-2-oxo-1,2-dihydroquinolin-5-yl)ethyl)amino)ethyl)benzoyl)-2,7-diazaspiro[3.5]nonan-2-yl)-2-oxoethoxy)phenyl)-2-phenylacetate]	< 0.3	< 0.3
